According to patent publication US20220339144A1, “PYRIDINYL INDOLE COMPOUNDS AND METHODS OF USE THEREOF” (Chinook Therapeutics Canada, Inc., priority 2021, published 2022):

What was measured:
[1] = test system: Pkd1 knockout mouse model of ADPKD; conditions: orthologous Pkd1 knockout mouse model of ADPKD; cited from earlier work
[2] = test system: orthologous mouse model of ADPKD; conditions: cited from earlier work
[3] = test system: miniature pig model of ADPKD; conditions: cited from earlier work
high fat diet mice = conditions: cited from earlier work
[4] = test system: ZSF1 rat model of diabetic nephropathy; conditions: cited from earlier work
AMPKα1β1γ1 = molecular target: T1, AMPKα1β1γ1 (Homo sapiens, UniProt Q13131+Q9Y478); assay: AMPKα1β1γ1 biochemical assay (LabChip EZ Reader mobility shift); conditions: EC50 of Table 1; activation, normalized to DMSO vehicle control; read-out: Human AMPK AMPKα1β1γ1 EC50
T1 construct: purchased Carna Biosciences 02-113
T1 sequence (Q13131 whole entry): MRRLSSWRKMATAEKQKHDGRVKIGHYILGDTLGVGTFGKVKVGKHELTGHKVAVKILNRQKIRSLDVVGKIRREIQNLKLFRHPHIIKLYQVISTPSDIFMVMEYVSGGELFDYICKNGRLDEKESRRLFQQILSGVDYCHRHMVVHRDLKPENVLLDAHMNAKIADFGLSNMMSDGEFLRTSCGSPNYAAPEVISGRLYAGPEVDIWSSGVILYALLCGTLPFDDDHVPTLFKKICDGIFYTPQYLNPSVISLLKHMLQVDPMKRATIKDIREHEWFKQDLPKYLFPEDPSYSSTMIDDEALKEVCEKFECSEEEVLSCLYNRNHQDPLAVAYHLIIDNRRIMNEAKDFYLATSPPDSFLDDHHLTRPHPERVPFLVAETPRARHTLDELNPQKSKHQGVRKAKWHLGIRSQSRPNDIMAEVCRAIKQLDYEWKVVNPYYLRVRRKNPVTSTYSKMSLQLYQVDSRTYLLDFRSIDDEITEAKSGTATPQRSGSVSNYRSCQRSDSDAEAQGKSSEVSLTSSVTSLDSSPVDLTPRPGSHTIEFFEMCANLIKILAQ
T1 sequence (Q9Y478 whole entry): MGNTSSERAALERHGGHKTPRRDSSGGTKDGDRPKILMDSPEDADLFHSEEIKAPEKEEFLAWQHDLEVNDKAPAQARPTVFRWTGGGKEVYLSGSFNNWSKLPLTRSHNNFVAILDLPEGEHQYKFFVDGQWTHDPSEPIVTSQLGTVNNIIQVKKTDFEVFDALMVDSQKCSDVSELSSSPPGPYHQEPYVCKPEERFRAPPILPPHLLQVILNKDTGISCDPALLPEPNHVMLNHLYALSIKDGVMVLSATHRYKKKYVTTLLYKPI
T1 sequence (P54619 whole entry partner): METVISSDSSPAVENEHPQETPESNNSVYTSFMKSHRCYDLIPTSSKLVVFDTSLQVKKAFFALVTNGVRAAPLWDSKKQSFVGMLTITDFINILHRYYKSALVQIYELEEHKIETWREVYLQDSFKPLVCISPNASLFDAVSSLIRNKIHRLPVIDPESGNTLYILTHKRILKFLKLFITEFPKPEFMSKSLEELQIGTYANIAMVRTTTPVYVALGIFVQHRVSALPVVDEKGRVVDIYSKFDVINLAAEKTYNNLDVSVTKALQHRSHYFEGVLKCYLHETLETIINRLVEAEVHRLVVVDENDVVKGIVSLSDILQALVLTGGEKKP
Method: (§1) Compounds disclosed herein were evaluated for their ability to activate AMPKα1β1γ1 by measuring phosphorylation of a commercially available fluorescent AMPK substrate using the LabChip® EZ Reader microfluidic system that is based on a mobility shift principle in which unphosphorylated fluorescent substrates may be separated and distinguished from phosphorylated fluorescent substrates due to the difference in negative charge. Briefly, compounds were serial diluted 3-fold in 100% DMSO for an 11-point dose-response curve. A 20 nL aliquot of diluted compound was transferred into a 384-well plate using a liquid handler (Labcyte Inc., Echo 550). A pre-prepared solution (10 mM MgCl2, 0.01% Brij-35, 2 mM DTT, 0.05% BSA, 1 mM EGTA, and 50 mM HEPES pH 7.5) was combined with 0.83 nM AMPKα1β1γ1 (Carna Biosciences, 02-113). The enzyme solution (15 μL) was aliquoted into each well and the plate was incubated at 24° C. for 30 min. A second stock solution (10 mM MgCl2, 0.01% Brij-35, 2 mM DTT, 0.05% BSA, 1 mM EGTA, 800 μM ATP, and 50 mM HEPES pH 7.5) was combined with 6 μM fluorescent peptide substrate for AMPKal (Perkin Elmer, 760351). The kinase reaction was initiated by adding 5 μL of the second solution containing substrate and ATP to each well. The plate was incubated at 24° C. for 90 minutes and 75 μL of 0.5 M EDTA was added to terminate the reaction. The plates were analyzed using a LabChip® EZ Reader (Perkin Elmer, 122919) and the effective concentration to achieve 50% of the maximal activity (EC50) was calculated after normalizing to the DMSO vehicle control.

AMPKα1β2γ1 = molecular target: T2, AMPKα1β2γ1 (Homo sapiens, UniProt O43741+Q13131); assay: AMPKα1β2γ1 biochemical assay (LabChip EZ Reader mobility shift); conditions: second EC50 column of Table 1 (head repeats α1β1γ1; text says α1β2γ1 isoform); read-out: Human AMPK AMPKα1β1γ1 EC50
T2 construct: purchased Carna Biosciences (printed only as 'Biosciences') 02-147
T2 sequence (Q13131 whole entry, canonical isoform): as the sequence (Q13131 whole entry) above
T2 sequence (O43741 whole entry, canonical isoform): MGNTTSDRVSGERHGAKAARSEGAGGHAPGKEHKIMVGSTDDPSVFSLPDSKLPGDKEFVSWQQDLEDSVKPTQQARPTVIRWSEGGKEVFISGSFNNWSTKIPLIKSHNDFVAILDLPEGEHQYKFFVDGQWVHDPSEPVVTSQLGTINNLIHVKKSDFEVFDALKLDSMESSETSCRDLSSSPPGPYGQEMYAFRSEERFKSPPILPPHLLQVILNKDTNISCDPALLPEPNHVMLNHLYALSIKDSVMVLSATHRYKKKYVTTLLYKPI
T2 sequence (P54619 whole entry partner, canonical isoform): as the sequence (P54619 whole entry partner) above
Method: as §1
The same procedure above was also used to measure activation of the AMPKα1β2γ1 isoform, replacing AMPKα1β1γ1 with AMPKα1β2γ1 Biosciences 02-147).

Wistar Han rats = conditions: 14 days of treatment in Wistar Han rats; cited from earlier work
[5] = ZSF1 progressive rat model of diabetic nephropathy

Compound | EC50 (AMPKα1β1γ1) [nM] | EC50 (AMPKα1β2γ1) [nM] | other results
O=C(Oc1ccccc1C(=O)O)c1ccccc1O [salsalate] | – | – | cystic disease severity [1]: attenuate cystic disease severity
CN(C)C(=N)N=C(N)N [Metformin] | – | – | cystic kidney disease [2]: attenuate cystic kidney disease; cystic kidney disease [3]: attenuate cystic kidney disease; high fat diet-induced metabolic derangement and renal injury (high fat diet mice): reduce high fat diet-induced metabolic derangement and renal injury
O=C(O)c1c[nH]c2cc(Cl)c(-c3ccc(C4(O)CCC4)cc3)cc12 [PF-06409577] | – | – | proteinuria ([4]; ZSF1 rat model of diabetic nephropathy): reduced proteinuria
COc1nc(N2CC3(CN(C(=O)OC(C)(C)C)C3)C2)ccc1-c1cc2c(C(=O)O)c[nH]c2cc1Cl [Example 6, 5-(6-(6-(tert-butoxycarbonyl)-2,6-diazaspiro[3.3]heptan-2-yl)-2-methoxypyridin-3-yl)-6-chloro-1H-indole-3-carboxylic acid] | 50 to 100 | > 10000 | –
MK-8722 | – | – | proteinuria, glomerular filtration rate, and kidney fibrosis [4, 5]: significant improvements; renal protection [4, 5]: renal protective; cardiac glycogen levels (Wistar Han rats): increased cardiac glycogen levels; cardiac hypertrophy (Wistar Han rats): significant cardiac hypertrophy
COc1nc(N2CC3(CC3)C2)ccc1-c1cc2c(C(=O)O)c[nH]c2cc1Cl [Example 12, 5-[6-(5-azaspiro[2.3]hexan-5-yl)-2-methoxy-3-pyridyl]-6-chloro-1H-indole-3-carboxylic acid] | ≤ 50 | > 10000 | –
COc1nc(N2C[C@H]3COC[C@H]3C2)ccc1-c1cc2c(C(=O)O)c[nH]c2cc1Cl [Example 27, 6-chloro-5-(2-methoxy-6-((cis)-tetrahydro-1H-furo[3,4-c]pyrrol-5(3H)-yl)pyridin-3-yl)-1H-indole-3-carboxylic Acid] | 50 to 100 | > 10000 | –
COc1nc(N2C[C@@H]3COC[C@H]3C2)ccc1-c1cc2c(C(=O)O)c[nH]c2cc1Cl [Example 33, 6-chloro-5-(2-methoxy-6-((3aR, 6aR)-tetrahydro-1H-furo[3,4-c]pyrrol-5(3H)-yl)pyridin-3-yl)-1H-indole-3-carboxylic acid] | ≤ 50 | 250 to 10000 | –
COc1nc(N2CC3(CCC3)C2)ccc1-c1cc2c(C(=O)O)c[nH]c2cc1Cl [Example 13, 6-chloro-5-(2-methoxy-6-(2-azaspiro[3.3]heptan-2-yl)pyridin-3-yl)-1H-indole-3-carboxylic acid] | ≤ 50 | > 10000 | –
COc1nc(N2C[C@@H]3[C@H](C2)[C@H]3OC)ccc1-c1cc2c(C(=O)O)c[nH]c2cc1Cl [Example 23, 6-chloro-5-(2-methoxy-6-((trans)-6-methoxy-3-azabicyclo[3.1.0]hexan-3-yl)pyridin-3-yl)-1H-indole-3-carboxylic acid] | 50 to 100 | > 10000 | –

Now from value to compound, other results behind:

EC50 (AMPKα1β1γ1) [nM] | EC50 (AMPKα1β2γ1) [nM] | Compound | other results
≤ 50 | > 10000 | COc1nc(N2CC3(CC(O)C3)C2)ccc1-c1cc2c(C(=O)O)c[nH]c2cc1Cl [Example 4, 6-chloro-5-(6-(6-hydroxy-2-azaspiro[3.3]heptan-2-yl)-2-methoxypyridin-3-yl)-1H-indole-3-carboxylic acid] | –
≤ 50 | > 10000 | COc1nc(N2CC3(CCCO3)C2)ccc1-c1cc2c(C(=O)O)c[nH]c2cc1Cl [Example 8, 6-chloro-5-(2-methoxy-6-(5-oxa-2-azaspiro[3.4]octan-2-yl)pyridin-3-yl)-1H-indole-3-carboxylic acid] | –
≤ 50 | > 10000 | COC[C@@H]1[C@H]2CN(c3ccc(-c4cc5c(C(=O)O)c[nH]c5cc4Cl)c(OC)n3)C[C@@H]12 [Example 9, 6-chloro-5-(2-methoxy-6-((trans)-6-(methoxymethyl)-3-azabicyclo[3.1.0]hexan-3-yl)pyridin-3-yl)-1H-indole-3-carboxylic acid] | –
≤ 50 | 250 to 10000 | COc1nc(N2C[C@H]3CN(C(C)=O)C[C@H]3C2)ccc1-c1cc2c(C(=O)O)c[nH]c2cc1Cl [Example 38, 5-(6-((3aR,6aS)-5-acetylhexahydropyrrolo [3,4-c]pyrrol-2(1H)-yl)-2-methoxypyridin-3-yl)-6-chloro-1H-indole-3-carboxylic acid] | –
≤ 50 | > 10000 | COc1nc(N2CC3(CC(N)C3)C2)ccc1-c1cc2c(C(=O)O)c[nH]c2cc1Cl [Example 10, 5-(6-(6-amino-2-azaspiro[3.3]heptan-2-yl)-2-methoxypyridin-3-yl)-6-chloro-1H-indole-3-carboxylic Acid] | –
≤ 50 | 250 to 10000 | COc1nc(N2C[C@@H]3[C@@H](O)[C@@H]3C2)ccc1-c1cc2c(C(=O)O)c[nH]c2cc1Cl [Example 24, 6-chloro-5-(6-((trans)-6-hydroxy-3-azabicyclo[3.1.0]hexan-3-yl)-2-methoxypyridin-3-yl)-1H-indole-3-carboxylic acid] | –
≤ 50 | > 10000 | COc1nc(N2CC3(CC(=O)N(C)C3)C2)ccc1-c1cc2c(C(=O)O)c[nH]c2cc1Cl [Example 22, 6-chloro-5-(2-methoxy-6-(6-methyl-7-oxo-2,6-diazaspiro[3.4]octan-2-yl)pyridin-3-yl)-1H-indole-3-carboxylic acid] | –
≤ 50 | > 10000 | COc1nc(N2CCC3(COC3)C2)ccc1-c1cc2c(C(=O)O)c[nH]c2cc1Cl [Example 5, 6-chloro-5-(2-methoxy-6-(2-oxa-6-azaspiro[3.4]octan-6-yl)pyridin-3-yl)-1H-indole-3-carboxylic acid] | –
